Reference: patent US20240209028A1, “CNP COMPOUNDS” (priority 2022, published 2024)
Starred links: 1 amine or outer side, 2 acyl side, 3 side chain; linkers in the order of their positions; H or OH if unused. Positions of bridges follow the written chain, without caps; N, C: chain ends. Residues, ends and D or L forms follow the SMILES beside them. *: point of attachment. C18 diacid = O=C(O)CCCCCCCCCCCCCCCCC(=O)*; γGlu = O=C(O)[C@H](CCC(=O)[*:2])N[*:1]; AEEA = NCCOCCOCC(=O)O

What was measured:
[1] = Local tolerance of CNP compounds in rats (s.c. injection, histopathology); type: in vivo, Sprague Dawley rat; conditions: for local subcutaneous necrosis: 5 days after subcutaneous injections in the rat; for assessment for human subcutaneous administration: based on rat local tolerance
In short: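 Male Sprague Dawley rats (10-11 weeks) received two s.c. injections of 250 or 350 uL compound (1000 nmol/mL formulation) in neck or flank, 120 h before necropsy; vehicle 5 mM sodium acetate/250 mM glycerol pH 4.0 or 8 mM sodium phosphate/250 mM glycerol pH 7.4. Injection sites were scored macroscopically, H&E-stained and graded on a 5-level scale (Min to Sev).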

[2] = CNP local tolerance study in LYD pigs (s.c. injection, histopathology); type: in vivo, domestic LYD pig; conditions: for local subcutaneous necrosis: 5 days after subcutaneous injections in the pig; for assessment for human subcutaneous administration: based on pig local tolerance
In short: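 Domestic pigs dosed s.c. mid-back, 100 or 200 μl at approx. 4400 μM, in phosphate pH 6.5 or acetate pH 4.0 buffers with glycerol or propylene glycol; saline as negative control. Sites excised 4 or 5 days post injection, H&E sections graded on 5-level scale; necrosis used as marker.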

mouse metatarsal bones = assay: Mouse metatarsal bone dissection and culture (ex vivo bone growth); type: cell-based, mouse (NMRI); conditions: 100 nM, n=8
Description: The purpose of this study was to evaluate bone growth after administration of CNP compounds in an ex vivo mouse model.
Procedure: One-day old mouse pups (NMRI, Javier Labs France) were euthanised prior to dissection. All applicable international and internal Novo Nordisk guidelines for care and use of animals were followed. The three middle metatarsal bones were dissected out from each hind paw. The dissected bones were placed in 24-well cell culture plates and cultured in 400 μl a-Minimum Essential Media supplemented with 0.2% BSA, 1% Pen/Strep at 37° C. and 5% CO2. The bones from all animals were randomised into a control group and six CNP compound-treated groups (100 nM; n=8). The medium was changed every 2-3 days. All compounds were formulated according to the principles described in General Methods of Preparation—Method G. Compounds 9435 and 9483 were formulated in A) 5 mM sodium acetate, 250 mM glycerol, pH 4.0 while compounds 9384, 9407, 9480 and 9482 were formulated in B) 8 mM sodium phosphate, 250 mM glycerol, pH 7.4.
Digital pictures were captured on day 0, 4, 7, 11, and 14 using a digital camera attached to a Nikon microscope. The length of each metatarsal bone was measured using ImageJ software and increase in bone length was expressed as percentage change from the length measured at the day of dissection (Mean (SD)).
In Table 27, metatarsal bones were isolated from mice and cultured for up to 14 days. Length was measured every 3-4 days throughout the study and expressed as percentage change from day 0 (Mean (SD)). Statistically significant differences are indicated compared to control group (two-way ANOVA).

[3] = LYD pig, s.c., approx. 4400 μM, 4 or 5 days after injection

SMILES | local subcutaneous necrosis [1] | assessment for human subcutaneous administration [1] | local subcutaneous necrosis [2] | assessment for human subcutaneous administration [2] | Increase in bone length, mean (%) change from day 0 (mouse metatarsal bones; day 4 in culture) [%] | Increase in bone length, mean (%) change from day 0 (mouse metatarsal bones; day 7 in culture) [%] | Increase in bone length, mean (%) change from day 0 (mouse metatarsal bones; day 11 in culture) [%] | Increase in bone length, mean (%) change from day 0 (mouse metatarsal bones; day 14 in culture) [%] | Number of injections by severity of necrosis: NAD (No Abnormalities Detected) ([1]; rat, s.c. 350 μl, about 1000 nmol/ml, 5 days post injection) | Number of injections by severity of necrosis: Min. [2, 3] | Number of injections by severity of necrosis: NAD [2, 3]
CC[C@H](C)[C@@H]1NC(=O)[C@H](CCCNC(=N)N)NC(=O)[C@H](CC(=O)O)NC(=O)[C@H](CC(C)C)NC(=O)[C@@H]2CCCN2C(=O)[C@H](CC(C)C)NC(=O)CNC(=O)[C@H](Cc2ccccc2)NC(=O)[C@@H](NC(=O)CNC(=O)[C@H](CCC(N)=O)NC(=O)[C@H](CO)NC(=O)[C@H](CC(C)C)NC(=O)CNC(=O)[C@H](CCCCN)NC(=O)[C@H](CCCCN)NC(=O)[C@H](CCC(N)=O)NC(=O)[C@H](C)NC(=O)CNC(=O)[C@H](CCCCN)NC(=O)[C@H](Cc2ccc(O)cc2)NC(=O)[C@H](CCCCN)NC(=O)[C@H](CCCNC(=N)N)NC(=O)[C@H](C)NC(=O)COCCOCCNC(=O)COCCOCCNC(=O)COCCOCCNC(=O)COCCOCCNC(=O)CC[C@H](NC(=O)CC[C@H](NC(=O)CC[C@H](NC(=O)CC[C@H](NC(=O)CC[C@H](NC(=O)CCCCCCCCCCCCCCCCC(=O)O)C(=O)O)C(=O)O)C(=O)O)C(=O)O)C(=O)O)CSSC[C@@H](C(=O)O)NC(=O)CNC(=O)[C@H](CC(C)C)NC(=O)CNC(=O)[C@H](CO)NC(=O)[C@H](CC(C)C)NC(=O)[C@H](CO)NC(=O)CNC1=O [compound 9407] ({C18 diacid-γGlu-γGlu-γGlu-γGlu-γGlu-AEEA-AEEA-AEEA-AEEA}-ARKYKGAQKKGLSQGCFGLPLDRIGSLSGLGC-OH; disulfide 16-32) | no or mild | acceptable | no to minimal | acceptable | 35.1 | 45.4 | 53.2 | 55.8 |  |  | 
CC[C@H](C)[C@@H]1NC(=O)[C@H](CCCNC(=N)N)NC(=O)[C@H](CC(=O)O)NC(=O)[C@H](CC(C)C)NC(=O)[C@@H]2CCCN2C(=O)[C@H](CC(C)C)NC(=O)CNC(=O)[C@H](Cc2ccccc2)NC(=O)[C@@H](NC(=O)CNC(=O)[C@H](CCC(N)=O)NC(=O)[C@H](CO)NC(=O)[C@H](CO)NC(=O)CNC(=O)[C@H](CCCCN)NC(=O)[C@H](CCCCN)NC(=O)[C@H](CCC(N)=O)NC(=O)[C@H](C)NC(=O)CNC(=O)[C@@H]2CCCN2C(=O)[C@H](C)NC(=O)[C@H](CCC(N)=O)NC(=O)CNC(=O)COCCOCCNC(=O)COCCOCCNC(=O)CC[C@H](NC(=O)CCCCCCCCCCCCCCCCC(=O)O)C(=O)O)CSSC[C@@H](C(=O)O)NC(=O)CNC(=O)[C@H](CC(C)C)NC(=O)CNC(=O)[C@H](CO)NC(=O)[C@H](CC(C)C)NC(=O)[C@H](CO)NC(=O)CNC1=O [compound 9384] ({C18 diacid-γGlu-AEEA-AEEA}-GQAPGAQKKGSSQGCFGLPLDRIGSLSGLGC-OH; disulfide 15-31; C-terminus assumed) | no or mild | acceptable | no to minimal | acceptable | 33.6 | 42.6 | 50.1 | 54.4 |  |  | 
CC[C@H](C)[C@@H]1NC(=O)[C@H](CCCNC(=N)N)NC(=O)[C@H](CC(=O)O)NC(=O)[C@H](CC(C)C)NC(=O)[C@@H]2CCCN2C(=O)[C@H](CC(C)C)NC(=O)CNC(=O)[C@H](Cc2ccccc2)NC(=O)[C@@H](NC(=O)CNC(=O)[C@H](CCC(N)=O)NC(=O)[C@H](CO)NC(=O)[C@H](CC(C)C)NC(=O)CNC(=O)[C@H](CCCCN)NC(=O)[C@H](CCCCN)NC(=O)[C@H](CCC(N)=O)NC(=O)[C@H](C)NC(=O)CNC(=O)[C@H](CCCCN)NC(=O)[C@H](Cc2ccc(O)cc2)NC(=O)[C@H](CCCCN)NC(=O)[C@H](CCCNC(=N)N)NC(=O)[C@H](C)NC(=O)COCCOCCNC(=O)COCCOCCNC(=O)COCCOCCNC(=O)COCCOCCNC(=O)CC[C@H](NC(=O)CC[C@H](NC(=O)CC[C@H](NC(=O)CC[C@H](NC(=O)CC[C@H](NC(=O)CCCCCCCCCCCCCCCCC(=O)O)C(=O)O)C(=O)O)C(=O)O)C(=O)O)C(=O)O)CSSC[C@@H](C(=O)O)NC(=O)CNC(=O)[C@H](CC(C)C)NC(=O)CNC(=O)[C@H](CO)NC(=O)[C@H](CC(C)C)NC(=O)[C@H](CO)NC(=O)CNC1=O [Compound 9407] ({C18 diacid-γGlu-γGlu-γGlu-γGlu-γGlu-AEEA-AEEA-AEEA-AEEA}-ARKYKGAQKKGLSQGCFGLPLDRIGSLSGLGC-OH; disulfide 16-32) |  |  |  |  |  |  |  |  | 4 | 1 | 3
